{"source": "patent US10266564B2", "about": "“Cationic lipid cordiarimide hybrid compounds and a process for preparation thereof” (COUNCIL OF SCIENTIFIC & INDUSTRIAL RESEARCH, priority 2014, dated 2019)", "key": {"HepG2 cells": {"tested_on": "HepG2 cells", "experiment": "Apoptosis, annexin V/PI staining by flow cytometry", "format": "cell-based, human", "conditions": "HepG2, 24 h", "description": "Quantitation of apoptotic cells by annexin V staining was carried out according to the manufacturer's instructions. Briefly, cells (5×10^5 cells/well) were seeded in 6 well plates and treated with 5 μM of 8h-8k for 24 h. After incubation, cells were washed with PBS and stained with 1.25 μL of annexin V-FITC and 10 μL of media binding reagent and incubated for 20 min. After that 10 μL of PI was added and samples were analyzed using a flow cytometer. Annexin V-FITC was analyzed using excitation and emission settings of 488 nm and 535 nm (FL-1 channel); PI, 488 nm and 610 nm (FL-2 channel). Debris and clumps were gated out using forward and orthogonal light scatter. Each experiment was repeated two times independently. Results are illustrated in FIG. 1 and the percentage of Annexin-V/PI positive cells increased gradually from 20 to 70% after 24 h of treatment (FIG. 1)."}, "ligase IIIβ": {"biological_target": "T1, ligase IIIβ (Homo sapiens, UniProt P49916)", "T1 sequence (P49916 43-949 isoform P49916-2 limits assumed)": "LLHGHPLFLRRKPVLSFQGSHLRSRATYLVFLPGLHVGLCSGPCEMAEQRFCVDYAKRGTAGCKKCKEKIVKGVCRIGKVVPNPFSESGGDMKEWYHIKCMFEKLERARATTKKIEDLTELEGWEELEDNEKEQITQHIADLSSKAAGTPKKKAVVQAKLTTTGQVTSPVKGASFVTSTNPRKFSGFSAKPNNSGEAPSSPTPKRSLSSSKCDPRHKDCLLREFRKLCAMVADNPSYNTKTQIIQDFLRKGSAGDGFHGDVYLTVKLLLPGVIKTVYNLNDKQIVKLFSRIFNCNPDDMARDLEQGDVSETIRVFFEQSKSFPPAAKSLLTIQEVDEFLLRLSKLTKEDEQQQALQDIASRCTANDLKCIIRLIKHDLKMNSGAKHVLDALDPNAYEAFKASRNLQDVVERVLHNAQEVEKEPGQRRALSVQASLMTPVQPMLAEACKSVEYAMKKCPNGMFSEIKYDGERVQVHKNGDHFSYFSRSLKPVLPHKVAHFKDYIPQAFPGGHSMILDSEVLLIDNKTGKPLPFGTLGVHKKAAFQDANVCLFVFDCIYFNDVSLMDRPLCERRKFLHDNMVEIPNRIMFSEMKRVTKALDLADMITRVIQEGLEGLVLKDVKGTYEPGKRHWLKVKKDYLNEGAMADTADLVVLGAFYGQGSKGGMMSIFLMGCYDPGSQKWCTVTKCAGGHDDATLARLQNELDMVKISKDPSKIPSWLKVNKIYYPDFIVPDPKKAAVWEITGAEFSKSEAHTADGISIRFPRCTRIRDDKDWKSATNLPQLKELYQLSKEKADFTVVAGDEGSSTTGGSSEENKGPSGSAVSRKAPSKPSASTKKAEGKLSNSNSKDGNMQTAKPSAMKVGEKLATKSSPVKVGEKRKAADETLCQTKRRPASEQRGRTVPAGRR", "experiment": "Ligation assay, DNA ligase IIIβ", "format": "biochemical", "text": "The ligation assay was done strictly following the assay protocol described in Xi Chen et. al, Cancer Res 2008; 68(9):3169-3177. The DNA molecules 52 mer (5′-3′), 28-mer (5′-3′) and 34-mer (5′-3′) were used to construct a double stranded nicked substrate for the ligase enzyme (FIG. 4). The 34-mer oligo was labelled with 32P-AMP to form a substrate for ligase and to form a ligase-AMP intermediate. During ligation, the ligase would transfer the AMP to the nick forming a phosphodiester bond and seal the nick. The ligated DNA molecule would be larger in size and run higher up on a 7% Urea-containing denaturing acrylamide gel. If an inhibitor is added to the reaction mixture prior to the addition of ligase, this would lead to an inhibition of ligation and a corresponding loss of labelled ligated product in the gel. We would then be able to calculate the percentage of inhibition of ligation by estimating the amount of ligated product in the lane with no inhibitor and comparing it with the lanes containing different inhibitor molecules or with the same inhibitor molecule at different concentrations."}, "hLig1-DNA complex": {"biological_target": "hLig1-DNA complex (Homo sapiens, UniProt P18858)", "sequence (P18858 whole entry, one chain of several)": "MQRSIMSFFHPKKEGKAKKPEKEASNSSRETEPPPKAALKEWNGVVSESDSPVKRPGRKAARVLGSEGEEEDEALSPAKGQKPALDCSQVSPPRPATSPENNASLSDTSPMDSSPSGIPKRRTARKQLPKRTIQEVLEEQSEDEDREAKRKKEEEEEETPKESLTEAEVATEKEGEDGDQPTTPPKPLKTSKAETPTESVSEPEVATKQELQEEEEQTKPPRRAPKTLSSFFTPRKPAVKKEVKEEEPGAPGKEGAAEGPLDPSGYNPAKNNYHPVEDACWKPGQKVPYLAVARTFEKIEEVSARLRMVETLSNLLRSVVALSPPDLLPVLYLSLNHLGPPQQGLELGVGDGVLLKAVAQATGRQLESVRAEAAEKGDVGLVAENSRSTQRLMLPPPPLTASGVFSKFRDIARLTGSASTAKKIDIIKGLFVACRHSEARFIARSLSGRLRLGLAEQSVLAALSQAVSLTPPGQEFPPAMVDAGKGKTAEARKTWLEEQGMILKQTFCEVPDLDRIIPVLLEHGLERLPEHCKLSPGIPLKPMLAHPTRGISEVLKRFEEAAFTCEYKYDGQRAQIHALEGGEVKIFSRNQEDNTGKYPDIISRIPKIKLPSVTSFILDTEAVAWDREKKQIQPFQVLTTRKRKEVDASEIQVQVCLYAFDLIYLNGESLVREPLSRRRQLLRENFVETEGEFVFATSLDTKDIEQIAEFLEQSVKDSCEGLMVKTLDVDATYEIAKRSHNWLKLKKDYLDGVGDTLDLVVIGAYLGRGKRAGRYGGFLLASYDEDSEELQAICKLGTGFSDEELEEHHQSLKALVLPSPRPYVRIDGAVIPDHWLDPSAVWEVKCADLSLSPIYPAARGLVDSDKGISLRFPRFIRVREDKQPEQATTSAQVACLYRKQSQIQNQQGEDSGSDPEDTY", "experiment": "Electrophoretic mobility shift assay (EMSA)", "format": "binding", "conditions": "25, 50 and 100 μM; hLig1 10 pmol, DNA 1 pmol", "description": "EMSA was performed as described in Xi Chen et. al, Cancer Res 2008; 68(9):3169-3177 with some modifications, for the interaction study between 8k and hLig1. Of the three oligos used to construct the DNA substrate, one was a 5′-FAM labelled 27-mer oligo with a dideoxy modified 3′ end. Other two oligos of 25-mer and 52-mer were used. These oligos were annealed to obtain a non-ligatable nicked DNA substrate which the ligase enzyme can recognize and bind to, but cannot ligate or release from it. […] Lanes 3-5 (FIG. 6A) contain increasing concentrations of the inhibitor. A shift in signal is seen is lanes 3-5. This shift in the ligase-DNA complex can occur only if the inhibitor binds to the complex of hLig1+DNA and increases the size of the complex. If inhibitor binds to ligase alone, then we would expect fewer signals in lanes 3-5. But since we see an increase in intensity of signal as well as a super-shift in the signal, we can reliably say that the inhibitor binds to the DNA-ligase complex and not separately to either DNA or ligase."}, "[1]": {"tested_on": "linearized plasmid pUC18 DNA", "experiment": "DNA intercalation assay", "format": "binding", "conditions": "up to 100 μM, compared to doxorubicin", "description": "Since there are multiple modes of inhibition of ligase activity, we wanted to determine whether 8k inhibited ligation by direct inhibition alone or through other means as well such as DNA intercalation. DNA intercalation assay was performed as described by Furlan et al., Biotechnol. Lett. 2002, 24, 1807-1813. We incubated 100 ng of linearized plasmid pUC18 DNA with increasing concentrations (50, 100, 200 μM) of Doxorubicin (positive control), ampicillin (negative control), and 8k for 30 minutes at 37° C. Reaction products were resolved on a 1% agarose gel at 5.3 V/cm. Gel was visualized by ethidium bromide staining."}}, "data": [{"compound": "CCCCCCCCCCCC[N+](C)(CCCCCCCCCCCC)CC(=O)NC1CCC(=O)N(CC(=O)c2ccccc2)C1=O", "note": "(centres unmarked) [Compound 8k, {[2,6-Dioxo-1-(2-oxo-2-phenyl-ethyl)-piperidin-3-ylcarbamoyl]-methyl}-Didodecyl-methyl-ammonium iodide]", "values": [{"measurement": "apoptosis induction (in words)", "setting": "HepG2 cells", "value": "induced significant amount of apoptosis"}, {"measurement": "inhibition at 5 µM", "setting": "ligase IIIβ; 5 μM", "value": "< 50", "unit": "%"}, {"measurement": "ligase III inhibition", "setting": "ligase IIIβ; at concentrations that kill HepG2 cells", "value": 30, "unit": "%"}, {"measurement": "mode of inhibition by EMSA", "setting": "hLig1-DNA complex", "value": "un-competitive mode of inhibition"}, {"measurement": "DNA intercalation", "setting": "[1]", "value": "no appreciable intercalation"}]}]}
